Patent US20240270741A1 (Cogent Biosciences, Inc., priority 2023, published 2024)

Molecular target: FGFR2 (Homo sapiens, UniProt P21802)
Test: FGFR wild type enzyme assay (HTRF KinEASE-TK), FGFR2
Details: Enz FGFR2 (nM), FGFR2 wild type enzyme

Sequence of FGFR2 (P21802 399-821 limits assumed): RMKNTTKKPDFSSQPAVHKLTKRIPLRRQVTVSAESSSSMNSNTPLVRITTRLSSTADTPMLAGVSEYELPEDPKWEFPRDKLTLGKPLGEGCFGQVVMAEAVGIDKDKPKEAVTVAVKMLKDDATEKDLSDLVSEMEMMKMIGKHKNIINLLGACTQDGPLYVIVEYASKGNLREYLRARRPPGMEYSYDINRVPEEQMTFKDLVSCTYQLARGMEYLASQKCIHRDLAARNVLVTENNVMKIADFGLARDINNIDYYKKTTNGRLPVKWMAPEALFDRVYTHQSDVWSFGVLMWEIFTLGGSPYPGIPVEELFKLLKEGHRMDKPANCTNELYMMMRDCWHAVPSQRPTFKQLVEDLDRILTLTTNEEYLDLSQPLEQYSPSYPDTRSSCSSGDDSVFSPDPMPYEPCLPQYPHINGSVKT

Structure (SMILES)	IC50 [nM]
CO[C@H](C)CN1CCC(n2ncc(-c3cc(Sc4ncccc4F)c4c(C#N)cnn4c3)c2C)CC1 [Example 148, (R)-4-((3-fluoropyridin-2-yl)thio)-6-(1-(1-(2-methoxypropyl)piperidin-4-yl)-5-methyl-1H-pyrazol-4-yl)pyrazolo[1,5-a]pyridine-3-carbonitrile]	2
CO[C@@H](C)CN1CCC(n2ncc(-c3cc(Sc4ncccc4F)c4c(C#N)cnn4c3)c2C)CC1 [Example 149, (S)-4-((3-fluoropyridin-2-yl)thio)-6-(1-(1-(2-methoxypropyl)piperidin-4-yl)-5-methyl-1H-pyrazol-4-yl)pyrazolo[1,5-a]pyridine-3-carbonitrile]	2
Cc1c(-c2cc(Sc3ncccc3F)c3c(C#N)cnn3c2)cnn1C[C@@H]1CCCNC1 [Example 150, (R)-4-((3-fluoropyridin-2-yl)thio)-6-(5-methyl-1-(piperidin-3-ylmethyl)-1H-pyrazol-4-yl)pyrazolo[1,5-a]pyridine-3-carbonitrile]	4
Cc1c(-c2cc(Sc3c(F)cc(F)cc3C#N)c3c(C#N)cnn3c2)cnn1C1CCN(C)CC1 [Example 151]	2
CC(=O)N1CCC(n2ncc(-c3cc(Sc4ncccc4F)c4c(C#N)cnn4c3)c2C)CC1 [Example 152, 6-(1-(1-acetylpiperidin-4-yl)-5-methyl-1H-pyrazol-4-yl)-4-((3-fluoropyridin-2-yl)thio)pyrazolo[1,5-a]pyridine-3-carbonitrile]	2
Cc1c(-c2cc(Sc3ncccc3F)c3c(C#N)cnn3c2)cnn1C1CCN(S(C)(=O)=O)CC1 [Example 153, 4-[(3-fluoro-2-pyridyl)sulfanyl]-6-[5-methyl-1-(1-methylsulfonyl-4-piperidyl)pyrazol-4-yl]pyrazolo[1,5-a]pyridine-3-carbonitrile]	2
Cc1c(-c2cc(Sc3ncccc3F)c3c(C#N)cnn3c2)cnn1[C@H]1CCNC[C@@H]1F [Example 154, 6-[1-[(3S,4S)-3-fluoro-4-piperidyl]-5-methyl-pyrazol-4-yl]-4-[(3-fluoro-2-pyridyl)sulfanyl]pyrazolo[1,5-a]pyridine-3-carbonitrile]	2
CO[C@@H](C)CN1CCC(n2ncc(-c3cc(Sc4ccccc4C#N)c4c(C#N)cnn4c3)c2C)CC1 [Example 157, (S)-4-((2-cyanophenyl)thio)-6-(1-(1-(2-methoxypropyl)piperidin-4-yl)-5-methyl-1H-pyrazol-4-yl)pyrazolo[1,5-a]pyridine-3-carbonitrile]	1
COCC(C)N1CCC(n2ncc(-c3cc(Sc4ncccc4F)c4c(C#N)cnn4c3)c2C)CC1 (stereo not drawn) [Example 158, 4-((3-fluoropyridin-2-yl)thio)-6-(1-(1-(1-methoxypropan-2-yl)piperidin-4-yl)-5-methyl-1H-pyrazol-4-yl)pyrazolo[1,5-a]pyridine-3-carbonitrile]	2
Cc1c(-c2cc(Sc3ccccc3C#N)c3c(C#N)cnn3c2)cnn1C1CCC(N(C)C)CC1 (stereo not drawn) [Example 159]	0.5
Cc1c(-c2cc(Sc3ncccc3F)c3c(C#N)cnn3c2)cnn1[C@@H](C)C1CCN(C)CC1 [Example 160, (S)-4-((3-fluoropyridin-2-yl)thio)-6-(5-methyl-1-(1-(1-methylpiperidin-4-yl)ethyl)-1H-pyrazol-4-yl)pyrazolo[1,5-a]pyridine-3-carbonitrile]	2
Cc1c(-c2cc(Sc3ncccc3F)c3c(C#N)cnn3c2)cnn1[C@@H](C)C1CCNCC1 [Example 161, 4-[(3-fluoro-2-pyridyl)sulfanyl]-6-[5-methyl-1-[(1S)-1-(4-piperidyl)ethyl]pyrazol-4-yl]pyrazolo[1,5-a]pyridine-3-carbonitrile]	2
Cc1c(-c2cc(Sc3ncccc3F)c3c(C#N)cnn3c2)cnn1C1CC2(CCNCC2)C1 [Example 162, 4-((3-fluoropyridin-2-yl)thio)-6-(5-methyl-1-(7-azaspiro[3.5]nonan-2-yl)-1H-pyrazol-4-yl)pyrazolo[1,5-a]pyridine-3-carbonitrile]	1
Cc1c(-c2cc(Sc3ncccc3F)c3c(C#N)cnn3c2)cnn1C1CCN(C(=O)CO)CC1 [Example 163, 4-((3-fluoropyridin-2-yl)thio)-6-(1-(1-(2-hydroxyacetyl)piperidin-4-yl)-5-methyl-1H-pyrazol-4-yl)pyrazolo[1,5-a]pyridine-3-carbonitrile]	3
CC(=O)N1CCC(n2ncc(-c3cc(Sc4ncc(F)cc4F)c4c(C#N)cnn4c3)c2C)CC1 [Example 164, 6-(1-(1-acetylpiperidin-4-yl)-5-methyl-1H-pyrazol-4-yl)-4-((3,5-difluoropyridin-2-yl)thio)pyrazolo[1,5-a]pyridine-3-carbonitrile]	5
Cc1c(-c2cc(Sc3ncccc3F)c3c(C#N)cnn3c2)cnn1[C@H]1CCCN(S(C)(=O)=O)C1 [Example 165, (S)-4-((3-fluoropyridin-2-yl)thio)-6-(5-methyl-1-(1-(methylsulfonyl)piperidin-3-yl)-1H-pyrazol-4-yl)pyrazolo[1,5-a]pyridine-3-carbonitrile]	2
CC(=O)N1CCC[C@H](n2ncc(-c3cc(Sc4ncccc4F)c4c(C#N)cnn4c3)c2C)C1 [Example 166, (S)-6-(1-(1-acetylpiperidin-3-yl)-5-methyl-1H-pyrazol-4-yl)-4-((3-fluoropyridin-2-yl)thio)pyrazolo[1,5-a]pyridine-3-carbonitrile]	2

Structure (SMILES)	IC50 [nM]
Cc1c(-c2cc(Sc3ncccc3F)c3c(C#N)cnn3c2)cnn1[C@H]1CCCN(C(=O)CO)C1 [Example 167, (S)-4-((3-fluoropyridin-2-yl)thio)-6-(1-(1-(2-hydroxyacetyl)piperidin-3-yl)-5-methyl-1H-pyrazol-4-yl)pyrazolo[1,5-a]pyridine-3-carbonitrile]	2
Cc1c(F)ccc(Sc2cc(-c3cnn(C4CCNCC4)c3C)cn3ncc(C#N)c23)c1C#N [Example 168]	1
C[C@H](O)CN1CC[C@@H](n2cc(-c3cc(Sc4ccccc4C#N)c4c(C#N)cnn4c3)cn2)C1 [Example 169, 4-(2-cyanophenyl)sulfanyl-6-[1-[(3R)-1-[(2S)-2-hydroxypropyl]pyrrolidin-3-yl]pyrazol-4-yl]pyrazolo[1,5-a]pyridine-3-carbonitrile]	0.4
Cc1c(-c2cc(Sc3ccccc3C#N)c3c(C#N)cnn3c2)cnn1C[C@@H]1CCCNC1 [Example 170, 4-(2-cyanophenyl)sulfanyl-6-[5-methyl-1-[[(3R)-3-piperidyl]methyl]pyrazol-4-yl]pyrazolo[1,5-a]pyridine-3-carbonitrile]	72
Cc1c(-c2cc(Sc3ncccc3F)c3c(C#N)cnn3c2)cnn1C1CCC(N(C)C)CC1 (stereo not drawn) [Example 171]	1
CCN(C)C1CCC(n2ncc(-c3cc(Sc4ncccc4F)c4c(C#N)cnn4c3)c2C)CC1 (stereo not drawn) [Example 172, 6-(1-(4-(ethyl(methyl)amino)cyclo-hexyl)-5-methyl-1H-pyrazol-4-yl)-4-((3-fluoropyridin-2-yl)thio)pyrazolo[1,5-a]pyridine-3-carbonitrile]	1
Cc1c(-c2cc(Sc3ncccc3F)c3c(C#N)cnn3c2)cnn1C1CCC(N(C)C(=O)CN(C)C)CC1 (stereo not drawn) [Example 173, N-(4-(4-(3-cyano-4-((3-fluoropyridin-2-yl)thio)pyrazolo[1,5-a]pyridin-6-yl)-5-methyl-1H-pyrazol-1-yl)cyclohexyl)-2-(dimethylamino)-N-methylacetamide]	1
CC(=O)N1CCC([C@@H](C)n2ncc(-c3cc(Sc4ncccc4F)c4c(C#N)cnn4c3)c2C)CC1 [Example 174, (R)-6-(1-(1-(1-acetylpiperidin-4-yl)ethyl)-5-methyl-1H-pyrazol-4-yl)-4-((3-fluoropyridin-2-yl)thio)pyrazolo[1,5-a]pyridine-3-carbonitrile]	4
Cc1c(-c2cc(Sc3ncccc3F)c3c(C#N)cnn3c2)cnn1[C@H]1CC[C@@]2(CCNC2)CC1 [Example 175, 4-((3-fluoropyridin-2-yl)thio)-6-(5-methyl-1-((5r,8r)-2-azaspiro[4.5]decan-8-yl)-1H-pyrazol-4-yl)pyrazolo[1,5-a]pyridine-3-carbonitrile]	1
CC(=O)N1CCC2(CC1)CC(n1ncc(-c3cc(Sc4ncccc4F)c4c(C#N)cnn4c3)c1C)C2 [Example 176, 6-(1-(7-acetyl-7-azaspiro[3.5]nonan-2-yl)-5-methyl-1H-pyrazol-4-yl)-4-((3-fluoropyridin-2-yl)thio)pyrazolo[1,5-a]pyridine-3-carbonitrile]	1.5
Cc1c(-c2cc(Sc3ncccc3F)c3c(C#N)cnn3c2)cnn1[C@H]1CC[C@@H](NS(C)(=O)=O)CC1 [Example 177, N-((1s,4s)-4-(4-(3-cyano-4-((3-fluoropyridin-2-yl)thio)pyrazolo[1,5-a]pyridin-6-yl)-5-methyl-1H-pyrazol-1-yl)cyclohexyl)methane-sulfonamide]	1
Cc1c(-c2cc(Sc3ncccc3F)c3c(C#N)cnn3c2)cnn1C1CCNC(C)(C)C1 (stereo not drawn) [Example 178]	1
Cc1c(-c2cc(Sc3ncccc3F)c3c(C#N)cnn3c2)cnn1[C@@H](C)CN(C)C [Example 179, (S)-6-(1-(1-(dimethylamino)propan-2-yl)-5-methyl-1H-pyrazol-4-yl)-4-((3-fluoropyridin-2-yl)thio)pyrazolo[1,5-a]pyridine-3-carbonitrile]	3
Cc1c(-c2cc(Sc3ncccc3F)c3c(C#N)cnn3c2)cnn1[C@H](C)CN(C)C [Example 180, (R)-6-(1-(1-(dimethylamino)propan-2-yl)-5-methyl-1H-pyrazol-4-yl)-4-((3-fluoropyridin-2-yl)thio)pyrazolo[1,5-a]pyridine-3-carbonitrile]	15
Cc1c(-c2cc(Sc3ncccc3F)c3c(C#N)cnn3c2)cnn1C[C@@H](C)N(C)C [Example 181, (R)-6-(1-(2-(dimethylamino)propyl)-5-methyl-1H-pyrazol-4-yl)-4-((3-fluoropyridin-2-yl)thio)pyrazolo[1,5-a]pyridine-3-carbonitrile]	7
Cc1c(-c2cc(Sc3ncccc3F)c3c(C#N)cnn3c2)cnn1C[C@H](C)N(C)C [Example 182, (S)-6-(1-(2-(dimethylamino)propyl)-5-methyl-1H-pyrazol-4-yl)-4-((3-fluoropyridin-2-yl)thio)pyrazolo[1,5-a]pyridine-3-carbonitrile]	8
